Publication PMC4965013, “Open Source Drug Discovery with the Malaria Box Compound Collection for Neglected Diseases and Beyond” (PLoS Pathogens, 2016)

Legend:
P. falciparum = assay: EC50 listed in S2 Table Metabolomics (used to set the concentration tested); assay type: cell-based; settings: Plasmodium falciparum; EC50 used for Factor_XEC50 in metabolomics; read-out: EC50_nM
[1] = test system: bovine Babesia and equine Babesia and Theileria parasites; assay: Babesia and Theileria fluorescence-based assay, all four species; assay type: cell-based, B. bovis, B. bigemina, T. equi, B. caballi
[2] = test system: P. falciparum 3D7 trophozoites; assay: Metabolomic fingerprint profiling LC-MS; assay type: cell-based, Plasmodium falciparum; design: UDP-D-glucose / ADP-D-glucose: unit not given here
[3] = metabolite level change after treatment

EC50 (P. falciparum): 255 nM
anti-Babesia and anti-Theileria hits, IC50 in words [1]: nanomolar IC50s
SMILES: CN(C)c1ccc(C(O)(c2ccc(N(C)C)cc2)c2ccc(N(C)C)cc2)cc1 [MMV665941]
Acetyllysine ([2]; S2 Table Metabolomics, metabolite Acetyllysine): -1.017
N-acetyl-L-ornithine ([2]; S2 Table Metabolomics, metabolite N-acetyl-L-ornithine): -0.7597
N-carbamoyl-L-aspartate ([2]; S2 Table Metabolomics, metabolite N-carbamoyl-L-aspartate): -0.9197
NADPH ([2]; S2 Table Metabolomics, metabolite NADPH): 0.7329
dAMP ([2]; S2 Table Metabolomics, metabolite dAMP): -0.1528
dCMP ([2]; S2 Table Metabolomics, metabolite dCMP): -0.8045
dTDP ([2]; S2 Table Metabolomics, metabolite dTDP): -0.3693
dTMP ([2]; S2 Table Metabolomics, metabolite dTMP): -0.3724
dTTP ([2]; S2 Table Metabolomics, metabolite dTTP): 0.2892
dihydroorotate ([2]; S2 Table Metabolomics, metabolite dihydroorotate): -0.7761
orotate ([2]; S2 Table Metabolomics, metabolite orotate): -0.6971
DLH ([2]; S2 Table Metabolomics, peptide DLH): -0.3436
DLS/SDL/SID ([2]; S2 Table Metabolomics, peptide DLS/SDL/SID): -0.7858
PD ([2]; S2 Table Metabolomics, peptide PD): -0.9616
PEE ([2]; S2 Table Metabolomics, peptide PEE): -0.896
PVNF ([2]; S2 Table Metabolomics, peptide PVNF): -0.9967
3-phosphoglycerate ([2]; metabolite 3-phosphoglycerate, S2 Table Metabolomics): -0.2513
ADP-D-glucose ([2]; metabolite ADP-D-glucose, S2 Table Metabolomics): -0.2022
ATP ([2]; metabolite ATP, S2 Table Metabolomics): -0.1582
CDP ([2]; metabolite CDP, S2 Table Metabolomics, change in metabolite level after compound treatment): -0.3781
D-sedoheptulose-1/7-phosphate ([2]; metabolite D-sedoheptulose-1/7-phosphate, S2 Table Metabolomics, change in metabolite level after compound treatment): -0.2425
FAD ([2]; metabolite FAD, S2 Table Metabolomics): -0.1824
GMP ([2]; metabolite GMP, S2 Table Metabolomics, change in metabolite level after compound treatment): -1.314
NAD+ ([2]; metabolite NAD+, S2 Table Metabolomics): -0.1192
NADP+ ([2]; metabolite NADP+, S2 Table Metabolomics): 0.08054
Octoluse Bisphosphate ([2]; metabolite Octoluse Bisphosphate, S2 Table Metabolomics, change in metabolite level after compound treatment): -0.4622
Pyroglutamic acid ([2]; metabolite Pyroglutamic acid, S2 Table Metabolomics): -0.1275
UDP-D-glucose ([2]; metabolite UDP-D-glucose, S2 Table Metabolomics): -0.08523
UDP-D-glucuronate ([2]; metabolite UDP-D-glucuronate, S2 Table Metabolomics): -0.09688
UDP-N-acetyl-glucosamine ([2]; metabolite UDP-N-acetyl-glucosamine, S2 Table Metabolomics): -0.3177
UDP ([2]; metabolite UDP, S2 Table Metabolomics, change in metabolite level after compound treatment): -0.7488
UMP ([2]; metabolite UMP, S2 Table Metabolomics, change in metabolite level after compound treatment): -1.259
UTP ([2]; metabolite UTP, S2 Table Metabolomics, change in metabolite level after compound treatment): -0.2947
a-ketoglutarate ([2]; metabolite a-ketoglutarate, S2 Table Metabolomics): -0.5688
citrate/isocitrate ([2]; metabolite citrate/isocitrate, S2 Table Metabolomics, change in metabolite level after compound treatment): -0.2269
cytidine ([2]; metabolite cytidine, S2 Table Metabolomics): 0.5361
dATP ([2]; metabolite dATP, S2 Table Metabolomics): 0.2904
dGMP/AMP ([2]; metabolite dGMP/AMP, S2 Table Metabolomics, change in metabolite level after compound treatment): -0.7364
fumarate ([2]; metabolite fumarate, S2 Table Metabolomics, change in metabolite level after compound treatment): -0.9732
glucose-1/6-phosphate ([2]; metabolite glucose-1/6-phosphate, S2 Table Metabolomics, change in metabolite level after compound treatment): -0.5386
glycerate ([2]; metabolite glycerate, S2 Table Metabolomics, change in metabolite level after compound treatment): -0.5934
guanine ([2]; metabolite guanine, S2 Table Metabolomics, change in metabolite level after compound treatment): -0.3347
guanosine ([2]; metabolite guanosine, S2 Table Metabolomics, change in metabolite level after compound treatment): -0.8332
hypoxanthine ([2]; metabolite hypoxanthine, S2 Table Metabolomics): -0.2046
indole ([2]; metabolite indole, S2 Table Metabolomics): -0.2792
inosine ([2]; metabolite inosine, S2 Table Metabolomics, change in metabolite level after compound treatment): -0.51
2_3-Diphosphoglyceric acid [2, 3]: -0.09061
4-phosphopantothenate [2, 3]: -0.6586
6-phospho-D-gluconate [2, 3]: -0.08067
FMN [2, 3]: 0.05461
IMP [2, 3]: -0.2283
Pyrophosphate [2, 3]: -0.1004
Sedoheptoluse bisphosphate [2, 3]: -0.2916
cyclic-AMP [2, 3]: 0.03248
glutathione disulfide [2, 3]: -0.3448
lactate [2, 3]: -0.6265
myo-inositol [2, 3]: -1.035
nicotinate ([2]; metabolite nicotinate, S2 Table Metabolomics): 0.06813
ornithine ([2]; metabolite ornithine, S2 Table Metabolomics): -0.116
phosphoenolpyruvate ([2]; metabolite phosphoenolpyruvate, S2 Table Metabolomics): -0.1381
pyruvate ([2]; metabolite pyruvate, S2 Table Metabolomics, change in metabolite level after compound treatment): -0.3661
ribose-phosphate ([2]; metabolite ribose-phosphate, S2 Table Metabolomics): -0.3246
sarcosine/alanine ([2]; metabolite sarcosine/alanine, S2 Table Metabolomics, change in metabolite level after compound treatment): -0.4581
sn-glycerol-3-phosphate ([2]; metabolite sn-glycerol-3-phosphate, S2 Table Metabolomics): -0.06155
succinate/methylmalonic acid ([2]; metabolite succinate/methylmalonic acid, S2 Table Metabolomics, change in metabolite level after compound treatment): -1.567
uridine ([2]; metabolite uridine, S2 Table Metabolomics, change in metabolite level after compound treatment): -0.4322
xanthosine ([2]; metabolite xanthosine, S2 Table Metabolomics, change in metabolite level after compound treatment): -0.131
